Assay [1] has as its target L-lactate dehydrogenase B chain (Homo sapiens, UniProt P07195).
Description: Competitive inhibition of human LDH1 in presence of NADH
The target of assay [2] is T1, L-lactate dehydrogenase A chain (Homo sapiens, UniProt P00338).
Description: Competitive inhibition of human LDH5 in presence of NADH
The target in assay [3] is T1, L-lactate dehydrogenase A chain. The experiment in a line: Competitive inhibition of human LDH5 incubated for 15 mins in presence of NADH by fluorescence analysis.

16 compounds from ChEMBL document CHEMBL3763153, “Recent Update on Human Lactate Dehydrogenase Enzyme 5 (hLDH5) Inhibitors: A Promising Approach for Cancer Chemotherapy” (J Med Chem, 2016) can be followed below.

Molecules are shown by their SMILES.

Chain of L-lactate dehydrogenase B chain (P07195 whole entry): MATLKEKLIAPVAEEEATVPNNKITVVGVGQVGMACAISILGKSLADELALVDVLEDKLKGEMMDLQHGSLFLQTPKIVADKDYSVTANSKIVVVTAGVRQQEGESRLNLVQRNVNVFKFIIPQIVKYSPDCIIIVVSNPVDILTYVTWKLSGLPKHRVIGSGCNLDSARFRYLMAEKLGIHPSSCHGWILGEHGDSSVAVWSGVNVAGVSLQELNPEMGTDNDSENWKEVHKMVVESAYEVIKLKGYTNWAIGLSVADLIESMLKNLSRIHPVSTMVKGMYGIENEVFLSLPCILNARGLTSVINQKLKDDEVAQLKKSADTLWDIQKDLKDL

As usually defined, the Ki is a measure of affinity in units of concentration, obtained from inhibition or displacement. Take `Cc1cc2c(C(C)C)c(O)c(O)c3c2c(c1-c1c(C)cc2c(C(C)C)c(O)c(O)c4c2c1OC4=O)OC3=O`: the inhibitory constant (Ki) was 400 nM in assay [1] and 600 nM in assay [2].

Regarding `CCCc1c(O)c(O)c(C(=O)O)c2ccc(C)cc12`, the Ki in assay [2] stood at 1000 nM.

By IC50 is commonly meant the concentration that inhibits the measured activity by half. A higher IC50 goes with a need for much substance. As to `O=C(O)CCCc1ccc(-n2cc(CCCn3cc(C4=C(c5c[nH]c6ccccc56)C(=O)NC4=O)c4ccccc43)nn2)cc1`, in assay [2], it took 14800 nM to reach half-maximal inhibition (IC50).

In assay [2], `Cc1cc2c(C(C)C)c(O)c(O)c(C(=O)O)c2cc1Cc1ccccc1` came in with an inhibition constant (Ki) of 200 nM.

On to `O=C(O)CCCCn1cc(CCCCn2cc(C3=C(c4c[nH]c5ccccc45)C(=O)NC3=O)c3ccccc32)nn1`, for which it took 35900 nM to reach half-maximal inhibition in assay [2] (IC50).

Take `Cc1ccc(-c2cc3c(C(=O)O)c(O)c(O)c(C(C)C)c3cc2C)cc1`: the figures for the Ki in assay [1] and in assay [2] were 8000 nM and 30 nM, respectively.

Consider `Cc1ccccc1-c1cc2c(C(=O)O)c(O)c(O)c(C(C)C)c2cc1C`, for which the Ki in assay [1] is more than 125000 nM; in assay [2] it was 3000 nM.

For the compound `O=C(O)c1cc2c(C(F)(F)F)cc(-c3ccccc3)cc2n1O[C@@H]1O[C@H](CO)[C@@H](O)[C@H](O)[C@H]1O`, in assay [3], the Ki worked out at 19500 nM.

`Cc1cc2c(C(C)C)c(O)c(O)c(C(=O)O)c2cc1Cc1ccc(Cl)cc1`: the Ki in assay [1] was 8000 nM; in assay [2], 1000 nM.

In the case of `Cc1cc2c(C(C)C)c(O)c(O)c(C(=O)O)c2cc1-c1ccc2c(C(C)C)c(O)c(O)c(C(=O)O)c2c1`, the values for the Ki in assay [1] and in assay [2] were 700 nM and 1300 nM, respectively.

As for `Cc1cccc(-c2cc3c(C(=O)O)c(O)c(O)c(C(C)C)c3cc2C)c1`, the affinity in assay [2], expressed as Ki, was 200 nM.

As for `Cc1cc2c(C(C)C)c(O)c(O)c3c2c(c1-c1c(C)cc2c(C(C)C)c(O)c(O)c4c2c1OC4=N)OC3=N`, the Ki in assay [1] turned out to be 92000 nM; in assay [2], 2500 nM.

On to `CC(=O)Oc1c(-c2c(C)cc3c(C(C)C)c(O)c(O)c(C#N)c3c2OC(C)=O)c(C)cc2c(C(C)C)c(O)c(O)c(C#N)c12`, for which, in assay [2], the affinity corresponds to a Ki of 2000 nM.

In turn, `CCCCC(=O)Oc1c(-c2c(C)cc3c(C(C)C)c(O)c(O)c(C#N)c3c2OC(=O)CCCC)c(C)cc2c(C(C)C)c(O)c(O)c(C#N)c12` had an inhibition constant (Ki) in assay [2] of 9100 nM.

Turning to `Cc1cc2c(C(C)C)c(O)c(O)c(C=O)c2c(O)c1-c1c(C)cc2c(C(C)C)c(O)c(O)c(C=O)c2c1O` [GOSSYPOL], the affinity in assay [2] corresponds to a Ki of 1900 nM.

In assay [1], `NC(=O)C(=O)O` [OXAMATE] displayed a Ki of 94400 nM.
